Source: US4221794A, “Method of imparting immunomodulating and antiviral activity” (Newport Pharmaceuticals International, Inc., priority 1979, dated 1980)
Where “and” joins values, the source holds several entries; their conditions need not be identical. Equal values may be shown once.

Tests used:
[1] = tested on: human peripheral blood lymphocytes; test: Mitogen (PHA) induced human lymphocyte proliferation; format: cell-based; conditions: plus = immunostimulating, minus = immunoinhibiting, 0 = neither
influenza virus [2] = test: microbe, parasite or virus in culture; format: cell-based, influenza virus Type A/USSR 90 (HeLa cell cultures); conditions: for inhibition at 100 µg/mL: read-out: % Inhibition of Hemadsorption Foci, Test Compound Conc. >100 μg/ml
mouse lymphocytes = test: Mitogen (Con A) induced mouse lymphocyte (spleen cell) proliferation; format: cell-based; conditions: for Maximum Percent Change, Mitogen Induced (Con A) Mouse Lymph. Prolif.: plus = immunostimulating, minus = immunoinhibiting, 0 = neither
Excerpt: The following three assay procedures are used to evaluate the ability of the test substances to modulate the activity of several classes of cells in the immune system. In these systems it is possible to identify both immunopotentiating activity (evidence by an enhancement of the parameter examined) as well as immunosuppressant activity (evidenced by an inhibition of the parameter examined).
1. Mitogen-Induced Mouse Spleen Cell Assay
Mouse spleen cells contain a population of both B and T lymphocytes which can be stimulated by a number of foreign substances (e.g., plant mitogens such as Con A) to proliferate. This enhanced proliferation is an indication of enhanced cell mediated immunity. The method below describes the system used to evaluate test substances as immunopotentiators.
Concanavalin A (Calbiochem, La Jolla, California), Lot #210073, lyophilized in NaCl, was prepared first as a 1% solution and diluted as a 2×concentration for each dilution (0.5, 1.0, 2.5 μg/ml).
Six to eight week old male Balb/c and C3 H inbred mice were obtained from the following sources: Flow Research Animals, Inc., Dublin, Virginia; Charles River Breeding Laboratories, Wilmington, Massachusetts; Laboratory Supply Company, Indianapolis, Indiana; and Lionel Strong Foundation, San Diego, California.
Three to five mice were sacrificed by cervical dislocation and the spleens aseptically removed. Pooled spleens were minced and teased with sterile forceps; then strained through a double layer of nylon mesh. The cell suspension was washed once with 15 ml of RPMI 1640 supplemented with 5% fetal calf serum and antibiotics. Cells were cultured at a concentration of 10^6 cells/0.1 ml/well in micro-plates. Cultures were incubated in the presence or absence of mitogen in a humidified atmosphere containing 5% CO2 for 48 hours. The test compound was added to cultures at various concentrations concommitant with mitogen.
Proliferation was assayed by the degree of incorporation of 1.0 μCi of [^3 H] thymidine over an 18 hour incubation period. Cultures were harvested by a MASH unit (Otto Hiller Co., Madison, Wisconsin) and thymidine incorporation was assayed by liquid scintillation spectrometry. Cultures were performed in triplicate and data are expressed as means plus or minus the standard error of the experimental means. Drug stimulation indices over control values were also calculated and portrayed graphically.
(§1) Table 4 above presents the results of an evaluation of a number of these subject compounds as potentiators of the immune response. Three different test systems were used. The first involves a measure of the ability of the test compound to enhance the ability of mouse lymphocytes to proliferate in response to a plant mitogen (Con A). The second involves measuring the ability of the test compounds to enhance human lymphocyte proliferation in response to a second plant mitogen (PHA). The third system measures the ability of these test substances to enhance macrophage proliferation in response to a natural lymphokine (MMF, Macrophage Mitogenic Factor).

guinea pig macrophages = test: Lymphokine (MMF) induced guinea pig macrophage proliferation; format: cell-based; conditions: plus = immunostimulating, minus = immunoinhibiting, 0 = neither
Procedure: 3. The macrophage represents a subpopulation of white blood cells which is an important component of the immune system in control of both cellular and humoral immunity. The assay system described below evaluates the substances studied as potentiators of macrophage function.
Phytohemagglutinin (PHA) (HA-17) was purchased from Burroughs Wellcome. A preparation containing Macrophage Mitogen Factor (MMF) and Macrophage Activating Factor (MAF) was prepared from antigen-stimulated immune lymph node lymphocytes (guinea pig) as previously described by Hadden et al, Nature 257, 483-485 (1975). […] The active fraction was employed in both the proliferation and activation assays.
Ficoll-hypaque purified human peripheral blood lymphocytes were prepared and PHA-induced lymphocyte proliferation was assayed by the incorporation of tritiated thymidine as described in Hadden et al., Cell. Immunol. 20, 98-103 (1975). Each compound was analyzed in the presence of suboptimal, optimal and supraoptimal concentrations of PHA (0.001, 0.01, 0.1 units/ml respectively). Paraffin oil-induced guinea pig peritoneal macrophages were prepared and incubated as monolayer culture (>98% pure macrophages). Lymphokine (MMF)-induced proliferation was assayed by the incorporation of tritiated thymidine at 3 and 5 days of culture as described, Hadden et al, Nature 257, 483-485 (1975). Lymphokine (MAF)-induced macrophage activation to kill Listeria monocytogenes following 5 days of culture in the presence or absence of MAF was performed during a 6 hour period as described in Hadden and England, Immunopharmacology, pages 87-100 (Plenum Press, 1977). Phagocytosis was quantitated during a 20-minute exposure to Listeria monocytogenes by counting the number of macrophages containing bacteria and the number of bacteria per phagocytic cell on gram stained monolayers in Labtek chambers. Intracellular killing of bacteria was evaluated by counting the number of cells containing bacteria and the number of bacteria/cell 6 hours after the initial 20 minute exposure. Parallel experiments in which macrophages were lysed and intracellular bacteria were cultured confirm the validity of bacterial activity determined by this manner in this system. The drugs were employed in each of the three systems over serial log concentration range in triplicate in the presence and absence of mitogen or lymphokine. Each type of experiment was performed at least three times. Previous experiments indicate a parallelism of response to pharmacologic modulation in the proliferation and achivation assays.
as §1

influenza virus [3] = test: Anti-influenza activity (overall); format: cell-based, several strains of A and B sub-types
[4] = tested on: Influenza A Swine 1976 (Hlsw -N1); format: cell-based; conditions: listed as 15417
[5] = 1.0-10 (unit not printed), listed as 15417

SMILES	Maximum Percent Change, Mitogen Induced (PHA) Human Lymph. Prolif. ([1]; 1.0-10 (unit not given))	Maximum Percent Change, Mitogen Induced (PHA) Human Lymph. Prolif. ([1]; 10-100 (unit not given)) [%]	Maximum Percent Change, Mitogen Induced (PHA) Human Lymph. Prolif. ([1]; .01-1.0 (unit not given)) [%]	Maximum Percent Change, Mitogen Induced (Con A) Mouse Lymph. Prolif. (mouse lymphocytes; 1.0-10 (unit not given))	Maximum Percent Change, Mitogen Induced (Con A) Mouse Lymph. Prolif. (mouse lymphocytes; 10-100 (unit not given))	Maximum Percent Change, Mitogen Induced (Con A) Mouse Lymph. Prolif. (mouse lymphocytes; .01-1.0 (unit not given))	potentiation of anti-influenza activity by DIP.PAcBA salt (influenza virus [3])	other results
CC(CO)n1cnc2c(N)ncnc21 (centres unmarked) [NPT 15433, 9-(1-HYDROXY-2-PROPYL)ADENINE]	0%	-50	53	-23%	-65%	+15%	–	% Inhibition of Hemadsorption Foci (influenza virus [2]; Test Compound Conc. >100 μg/ml, listed as 15433): 0%
CC(O)Cn1cnc2c(N)ncnc21 (centres unmarked) [NPT 15431, 9-(2-HYDROXY-1-PROPYL)ADENINE]	0%	0	0	-27%	-47%	-15%	–	% Inhibition of Hemadsorption Foci (influenza virus [2]; Test Compound Conc. >100 μg/ml, listed as 15431): 0%
CC(CO)n1cnc2c(=O)[nH]cnc21 (centres unmarked) [NPT 15443, 9-(1-HYDROXY-2-PROPYL)HYPOXANTHINE]	+13%	0	0	+27%	+27%	+17%	–	% Inhibition of Hemadsorption Foci (influenza virus [2]; Test Compound Conc. >100 μg/ml, listed as 15443): 0%; Maximum Percent Change, Lymphokine Induced (MMF) Guinea Pig Mac. Prolif. (guinea pig macrophages; 1.0-10 (unit not given)): 0%; Maximum Percent Change, Lymphokine Induced (MMF) Guinea Pig Mac. Prolif. (guinea pig macrophages; .01-1.0 (unit not given)): +20%
OCCn1cnc2c(S)ncnc21 [NPT 15437]	–	–	–	–	–	–	Yes	inhibition at 100 µg/mL (influenza virus [2]; unidentified influenza virus): 65%
CC(O)Cn1cnc2c(=O)[nH]cnc21 (centres unmarked) [NPT 15447]	–	–	–	–	–	–	Yes	% Inhibition of Hemadsorption Foci (influenza virus [2]; Test Compound Conc. <10 μg/ml, listed as 15447): 10%; % Inhibition of Hemadsorption Foci (influenza virus [2]; Test Compound Conc. >100 μg/ml, listed as 15447): 34%
CCCCCCC(CO)n1cnc2c(=O)[nH]cnc21 (centres unmarked) [NPT 15417]	0%	-50	0	–	–	–	–	anti-influenza activity (in words) (influenza virus [3]; compound by itself): significant anti-influenza activity; inhibit the replication of different strains of influenza virus (number of strains) (influenza virus [3]; concentrations ranging from 1-150 μg/ml): at least 4 different strains; % Inhibition [4]: 50-70% and > 70%; inhibition at 10 µg/mL (influenza virus [2]; unidentified influenza virus, read-out: % Inhibition of Hemadsorption Foci, Test Compound Conc. <10 μg/ml): 18%; inhibition at 100 µg/mL (influenza virus [2]; unidentified influenza virus): 60%; % Stimulation, Mitogen Induced Murine Lymphocyte Proliferation (mouse lymphocytes; 01-1.0 μg/ml, listed as 15417): 0%; % Stimulation, Mitogen Induced Murine Lymphocyte Proliferation (mouse lymphocytes; 1.0-10 μg/ml, listed as 15417): 0%; Maximum Percent Change, Mitogen Induced (Con A) Mouse Lymph. Prolif. (mouse lymphocytes; [5]): 0%; % Stimulation, Mitogen Induced Murine Lymphocyte Proliferation (mouse lymphocytes; 10-100 μg/ml, listed as 15417): 0%; Maximum Percent Change, Mitogen Induced (Con A) Mouse Lymph. Prolif. (mouse lymphocytes; 10-100 (unit not printed), listed as 15417): 0%; Maximum Percent Change, Mitogen Induced (Con A) Mouse Lymph. Prolif. (mouse lymphocytes; .01-1.0 (unit not printed), listed as 15417): 0%; % Stimulation, Mitogen Induced Murine Lymphocyte Proliferation (mouse lymphocytes; >100 μg/ml): 0%; Maximum Percent Change, Lymphokine Induced (MMF) Guinea Pig Mac. Prolif. (guinea pig macrophages; [5]): 13%; Maximum Percent Change, Lymphokine Induced (MMF) Guinea Pig Mac. Prolif. (guinea pig macrophages; 10-100 (unit not given)): -50%
CC(CO)n1cnc2c(=O)[nH]cnc21 (centres unmarked) [NPT 15444]	–	–	–	–	–	–	Yes	% Inhibition of Hemadsorption Foci (influenza virus [2]; Test Compound Conc. >100 μg/ml, listed as 15444): 54%
